Experimental data as given in patent US20230059136A1, “THE COMPOUNDS AND COMPOSITIONS FOR TREATING CONDITIONS ASSOCIATED WITH NLRP ACTIVITY” (Novartis AG, priority 2018, published 2023).
pIC50: −log10 of the molar value.

Test system: IL-1β production in PMA-differentiated THP-1 cells
Test: IL-1β production in PMA-differentiated THP-1 cells stimulated with gramicidin (hTHP-1 assay containing 2% fetal bovine serum)
Format: cell-based, human
Conditions: Homo sapiens, THP-1, Table B1; 2% fetal bovine serum; cells printed as numeric bound; read-out: hTHP-1 IC50 (Average IC50 of compounds in hTHP-1 assay)
Summary of the method: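 THP-1 cells were differentiated with PMA 20 ng/ml for 16-18 h, then plated at 50,000 cells/well in RPMI with 2% FBS. They were preincubated 1 h with compound (100–0.0017 μM final, 0.37% DMSO), then stimulated with gramicidin 5 μM for 2 h. Supernatant IL-1β was measured by HTRF.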

pIC50 | SMILES
< 4.52 | CC(C)c1cc2c(cnn2C)c(C(C)C)c1CC(=O)N=S(N)(=O)c1ncc(C(C)(C)O)s1 (stereo not shown) [Compound 1341]
< 4.52 | CC(C)c1cc(F)cc(C(C)C)c1C(C)C(=O)N=S(N)(=O)c1cnc(C(C)(C)O)s1 (stereo not shown) [Example 96, N-(amino(2-(2-hydroxypropan-2-yl)thiazol-5-yl)(oxo)-λ^6-sulfaneylidene)-2-(4-fluoro-2,6-diisopropylphenyl)propanamide]

More lines, now with the values behind:

SMILES | pIC50
CC(C)(O)c1ncc([S@](N)(=O)=NC(=O)Cc2cc3c(c4c2CCC4)CCC3)s1 [Compound 259b] | < 4.52
CC(C)c1ncnc(C(C)C)c1CC(=O)N=S(N)(=O)c1cnc(C(C)(C)O)s1 (stereo not shown) [Compound 260] | < 4.52

Same assay, conditions: Homo sapiens, THP-1, Table B1; 2% fetal bovine serum; class symbols; read-out: hTHP-1 IC50 (Average IC50 of compounds in hTHP-1 assay)

pIC50 | SMILES
5.30 to 6.00 | CC(C)c1cc(F)cc(C(C)C)c1CC(=O)N=S(N)(=O)c1ccc(C(C)(C)O)cc1 (stereo not shown) [Example 1, 2-(4-Fluoro-2,6-diisopropylphenyl)-N-(4-(2-hydroxypropan-2-yl)phenylsulfonimidoyl)acetamide]
6.00 to 6.70 | CC(C)c1cc(F)cc(C(C)C)c1CC(=O)N=S(N)(=O)c1ncc(C(C)(C)O)s1 (stereo not shown) [Example 7, 2-(4-Fluoro-2,6-diisopropylphenyl)-N-(5-(2-hydroxypropan-2-yl)thiazole-2-sulfonimidoyl)acetamide]
5.30 to 6.00 | CC(C)c1cc(F)cc(C(C)C)c1CC(=O)NS(=N)(=O)c1ncc(C(C)(C)O)s1 [Example 8, (S)- and (R)-2-(4-fluoro-2,6-diisopropylphenyl)-N-(5-(2-hydroxypropan-2-yl)thiazole-2-sulfonimidoyl)acetamide]
6.00 to 6.70 | CC(C)c1cc(C#N)cc(C(C)C)c1CC(=O)N=S(N)(=O)c1sc(C(C)(C)O)nc1CO (stereo not shown) [Example 22, N-(amino(4-(hydroxymethyl)-2-(2-hydroxypropan-2-yl)thiazol-5-yl)(oxo)-λ^6-sulfaneylidene)-2-(4-cyano-2,6-diisopropylphenyl)acetamide]
6.70 to 7.40 | CC(C)c1ccc(F)c(C(C)C)c1CC(=O)N=S(N)(=O)c1cc(C(C)(C)O)cs1 (stereo not shown) [Example 106, N-(ainino(4-(2-hydroxypropan-2-yl)thiophen-2-yl)(oxo)-λ^6-sulfaneylidene)-2-(3-fluoro-2,6-diisopropylphenyl)acetamide]

More lines, now with the values behind:

SMILES | pIC50
CC(C)c1cc2c(c(C(C)C)c1CC(=O)N=S(=O)(NC#N)c1cc(C(C)(C)O)cs1)COC2 (stereo in doubt) [Example 343, (S)-N-(cyanamido(4-(2-hydroxypropan-2-yl)thiophen-2-yl)(oxo)-λ^6-sulfaneylidene)-2-(4,6-diisopropyl-1,3-dihydroisobenzofuran-5-yl)acetamide] | 4.52 to 5.30
CC(C)c1cc2c(c(C(C)C)c1CC(=O)N=S(=O)(NC#N)c1cc(C(C)(C)O)cs1)COC2 (stereo in doubt) [Example 344, (R)-N-(cyanamido(4-(2-hydroxypropan-2-yl)thiophen-2-yl)(oxo)-λ^6-sulfaneylidene)-2-(4,6-diisopropyl-1,3-dihydroisobenzofuran-5-yl)acetamide] | 6.00 to 6.70
CC(C)c1cc(-c2ccc3c(c2)COCC3)cc(C(C)C)c1CC(=O)N=S(N)(=O)c1cnc(C(C)(C)O)s1 (stereo not shown) [Example 97, N-(amino(2-(2-hydroxypropan-2-yl)thiazol-5-yl)(oxo)-λ^6-sulfaneylidene)-2-(4-(isochroman-7-yl)-2,6-diisopropylphenyl)acetamide] | 6.00 to 6.70
CC(C)(O)c1ncc(S(N)(=O)=NC(=O)Cc2c(C3CC3)cc(F)cc2C(F)(F)F)s1 (stereo not shown) [Example 98, N-(amino(2-(2-hydroxypropan-2-yl)thiazol-5-yl)(oxo)-λ^6-sulfaneylidene)-2-(2-cyclopropyl-4-fluoro-6-(trifluoromethyl)phenyl)acetamide] | 4.52 to 5.30
CC(C)c1nc(-c2cccc(C(F)(F)F)c2)c(F)c(C(C)C)c1CC(=O)N=S(N)(=O)c1cnc(C(C)(C)O)s1 (stereo not shown) [Example 100, N-(amino(2-(2-hydroxypropan-2-yl)thiazol-5-yl)(oxo)-λ^6-sulfaneylidene)-2-(5-fluoro-2,4-diisopropyl-6-(3-(trifluoromethyl)phenyl)pyridin-3-yl)acetamide] | 6.00 to 6.70

Same assay, conditions: Homo sapiens, THP-1, Table B2; 2% fetal bovine serum; cells printed as numeric bound; read-out: hTHP-1 IC50 (Average IC50 of compounds in hTHP-1 assay)

pIC50 | SMILES
< 4.52 | CC(C)c1nc(C(F)(F)F)nc(C(C)C)c1CC(=O)N=S(N)(=O)c1cnc(C(C)(C)O)s1 (single isomer, unassigned) [Example 397, (R) or (S)-N-(amino(2-(2-hydroxypropan-2-yl)thiazol-5-yl)(oxo)-λ^6-sulfaneylidene)-2-(4,6-diisopropyl-2-(trifluoromethyl)pyrimidin-5-yl)acetamide]
< 4.52 | CCn1cc(F)c(S(N)(=O)=NC(=O)Cc2c(C(C)C)cc3c(c2C(C)C)COC3)n1 (single isomer, unassigned) [Example 399, (S) or (R)-N-(amino(1-ethyl-4-fluoro-1H-pyrazol-3-yl)(oxo)-λ^6-sulfaneylidene)-2-(4,6-diisopropyl-1,3-dihydroisobenzofuran-5-yl)acetamide]

Same assay, conditions: Homo sapiens, THP-1, Table B2; 2% fetal bovine serum; class symbols; read-out: hTHP-1 IC50 (Average IC50 of compounds in hTHP-1 assay)

pIC50 | SMILES
6.00 to 6.70 | CCn1cc(F)c(S(N)(=O)=NC(=O)Cc2c(C(C)C)cc3c(c2C(C)C)COC3)n1 (single isomer, unassigned) [Example 398, (R) or (S)-N-(amino(1-ethyl-4-fluoro-1H-pyrazol-3-yl)(oxo)-λ^6-sulfaneylidene)-2-(4,6-diisopropyl-1,3-dihydroisobenzofuran-5-yl)acetamide]
5.30 to 6.00 | COc1cc(-c2cccc(C(C)C)c2CC(=O)N=S(=O)(NC#N)c2cnc(C(C)(O)CO)s2)ccn1 (stereo in doubt) [Example 367, N-(cyanamido(2-((S)-1,2-dihydroxypropan-2-yl)thiazol-5-yl)(oxo)-λ^6-sulfaneylidene)-2-(2-isopropyl-6-(2-methoxypyridin-4-yl)phenyl)acetamide]

Same assay, conditions: Table B1; 2% fetal bovine serum; class symbols; read-out: hTHP-1 IC50 (Average IC50 of compounds in hTHP-1 assay)

pIC50 | SMILES
7.40 to 8.10 | CC(C)c1cc(F)cc(C(C)C)c1CC(=O)N=S(N)(=O)c1sc(C(C)(C)O)cc1F (stereo not shown) [Example 17, 2-(4-fluoro-2,6-diisopropylphenyl)-N-(3-fluoro-5-(2-hydroxypropan-2-yl)thiophen-2-ylsulfonimidoyl)acetamide]
6.70 to 7.40 | CC(C)c1cc(OC(F)F)cc(C(C)C)c1CC(=O)N=S(N)(=O)c1sc(C(C)(C)O)cc1F (stereo not shown) [Example 21, 2-(4-(difluoromethoxy)-2,6-diisopropylphenyl)-N-(3-fluoro-5-(2-hydroxypropan-2-yl)thiophen-2-ylsulfonimidoyl)acctamide]
6.00 to 6.70 | COCc1cc(C(C)C)c(CC(=O)N=S(N)(=O)c2sc(C(C)(C)O)nc2CO)c(C(C)C)c1 (stereo not shown) [Example 24, 2-(2,6-diisopropyl-4-(methoxymethyl)phenyl)-N-(4-(hydroxymethyl)-2-(2-hydroxypropan-2-yl)thiazole-5-sulfonimidoyl)acetamide]

Second part, the compound before the results:

SMILES | pIC50
CC(C)c1c(F)c(C#N)cc(C2CC2)c1CC(=O)N=S(N)(=O)c1sc(C(C)(C)O)cc1F (stereo not shown) [Example 19, 2-(4-cyano-6-cyclopropyl-3-fluoro-2-isopropylphenyl)-N-(3-fluoro-5-(2-hydroxypropan-2-yl)thiophen-2-ylsulfonimidoyl)acetamide] | 7.40 to 8.10
CC(C)c1cc(Cl)c(F)c(C2CC2)c1CC(=O)N=S(N)(=O)c1sc(C(C)(C)O)cc1F (stereo not shown) [Example 20, 2-(4-chloro-2-cyclopropyl-3-fluoro-6-isopropylphenyl)-N-(3-fluoro-5-(2-hydroxypropan-2-yl)thiophen-2-ylsulfonimidoyl)acetamide] | 6.00 to 6.70
CCc1cc(OC(F)F)cc(C(C)C)c1CC(=O)N=S(N)(=O)c1sc(C(C)(C)O)cc1F (stereo not shown) [Example 36, 2-(4-(difluoromethoxy)-2-ethyl-6-isopropylphenyl)-N-(3-fluoro-5-(2-hydroxypropan-2-yl)thiophene-2-sulfonimidoyl)acetamide] | 6.00 to 6.70

Same assay, conditions: Table B2; 2% fetal bovine serum; class symbols; read-out: hTHP-1 IC50 (Average IC50 of compounds in hTHP-1 assay)

pIC50 | SMILES
6.00 to 6.70 | CCn1cc(F)c(S(N)(=O)=NC(=O)Cc2c(C(C)C)cc3c(c2C(C)C)OC(F)(F)O3)n1 (single isomer, unassigned) [Example 400, (R) or (S)-N-(amino(1-ethyl-4-fluoro-1H-pyrazol-3-yl)(oxo)-λ^6-sulfaneylidene)-2-(2,2-difluoro-4,6-diisopropylbenzo[d][1,3]dioxol-5-yl)acetamide]
4.52 to 5.30 | CCn1cc(F)c(S(N)(=O)=NC(=O)Cc2c(C(C)C)cc3c(c2C(C)C)OC(F)(F)O3)n1 (single isomer, unassigned) [Example 401, (S) or (R)-N-(amino(1-ethyl-4-fluoro-1H-pyrazol-3-yl)(oxo)-λ^6-sulfaneylidene)-2-(2,2-difluoro-4,6-diisopropylbenzo[d][1,3]dioxol-5-yl)acetamide]
6.00 to 6.70 | CC(C)c1cc(C#N)c(F)c(C(C)C)c1CC(=O)N=S(N)(=O)c1cnc(C(O)(CO)CO)s1 (single isomer, unassigned) [Example 402, (R) or (S)-N-(amino(oxo) (2-(1,2,3-trihydroxypropan-2-yl)thiazol-5-yl)-λ^6-sulfaneylidene)-2-(4-cyano-3-fluoro-2,6-diisopropylphenyl)acetamide]
4.52 to 5.30 | CC(C)c1cc(C#N)c(F)c(C(C)C)c1CC(=O)N=S(N)(=O)c1cnc(C(O)(CO)CO)s1 (single isomer, unassigned) [Example 403, (S) or (R)-N-(amino(oxo) (2-(1,2,3-trihydroxypropan-2-yl)thiazol-5-yl)-λ^6-sulfaneylidene)-2-(4-cyano-3-fluoro-2,6-diisopropylphenyl)acetamide]
